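Each compound was tested at five concentrations against cells in 96-well plates for 48 hours. GI50: concentration for 50% inhibition of growth. TGI: total growth inhibition.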
Tests used:
Assay in all cases: inhibition of tumour cell growth, NCI panel, 48 h
OVCAR-3 ovarian = system: OVCAR-3 ovarian
NCI-H460 lung = system: NCI-H460 lung
SF-268 CNS = system: SF-268 CNS
SK-OV-3 ovarian = system: SK-OV-3 ovarian
HCT-116 colon = system: HCT-116 colon
LOX IMVI melanoma = system: LOX IMVI melanoma
OVCAR-4 ovarian = system: OVCAR-4 ovarian
KM12 colon = system: KM12 colon
HOP-62 NSCLC = system: HOP-62 NSCLC
BT-549 breast = system: BT-549 breast

| Structure (SMILES) | TGI (OVCAR-3 ovarian) | TGI (NCI-H460 lung) | TGI (SF-268 CNS) | TGI (SK-OV-3 ovarian) | TGI (HCT-116 colon) | TGI (LOX IMVI melanoma) | TGI (OVCAR-4 ovarian) | TGI (KM12 colon) | TGI (HOP-62 NSCLC) | GI50 (OVCAR-3 ovarian) | GI50 (NCI-H460 lung) | GI50 (SF-268 CNS) | GI50 (SK-OV-3 ovarian) | GI50 (HCT-116 colon) | GI50 (LOX IMVI melanoma) | GI50 (BT-549 breast) | TGI (BT-549 breast) | GI50 (OVCAR-4 ovarian) | GI50 (KM12 colon) | GI50 (HOP-62 NSCLC) |
| --- | --- | --- | --- | --- | --- | --- | --- | --- | --- | --- | --- | --- | --- | --- | --- | --- | --- | --- | --- | --- |
| Cc1ccccc1NC(=O)c1[nH]c(=S)nc(N)c1-c1ccccc1C | > 100 µM | > 100 µM | > 100 µM | > 100 µM | > 100 µM | > 100 µM | > 100 µM | > 100 µM | > 100 µM |  |  |  |  |  |  |  |  |  |  |  |
| Cc1cc(Cl)ccc1N1C(=O)C(=O)C(c2nc3ccccc3s2)C(=O)C1=O | > 100 µM | > 100 µM | > 100 µM | > 100 µM | > 100 µM |  | > 100 µM | > 100 µM | > 100 µM |  |  |  |  |  |  |  |  |  |  |  |
| COc1ccc(-n2c(N)c(C(=O)NCCN3CCOCC3)c3nc4ccccc4nc32)cc1OC | > 100 µM | > 100 µM | > 100 µM | > 100 µM | > 100 µM | > 100 µM | > 100 µM | > 100 µM |  | 20.3 µM | 3.28 µM | 5.39 µM | 85.5 µM | 3.49 µM | 5.69 µM | 27.6 µM | > 100 µM | 68.5 µM | 8.26 µM |  |
| Cc1ccc(S(=O)(=O)N2CCCCC2CCO)cc1 (stereo not given) | > 100 µM | > 100 µM | > 100 µM | > 100 µM | > 100 µM |  | > 100 µM | > 100 µM | > 100 µM |  |  |  |  |  |  |  |  |  |  |  |
| CCN(CCCl)CCNc1c2ccccc2nc2ccc(OC)cc12 | 4.71 µM | 2.2 µM | 2.59 µM | 3.81 µM | 2.1 µM | 2.14 µM | 3.24 µM | 3.11 µM | 3.85 µM |  |  |  |  |  |  |  |  |  |  |  |
| O=C(OCCOCCOC(=O)c1c[nH]cc1-c1ccccc1)c1c[nH]cc1-c1ccccc1 | 50 µM | 46.9 µM | 40 µM | 84.4 µM | 31.6 µM | 30.2 µM | 49.7 µM | 44.7 µM | 31.7 µM |  |  |  |  |  |  |  |  |  |  |  |
| CC(=O)O[C@H]1CC[C@@]2(C)C(=CC[C@@H]3C2CC[C@]2(C)Nc4oncc4CC32)C1 (stereo not given in full) | 30.7 µM | 48.8 µM |  | > 100 µM | 30.4 µM |  | 34.4 µM | 61.4 µM | > 100 µM |  |  |  |  |  |  |  |  |  |  |  |
| COc1cc(/C=C/C(=O)c2ccc(Nc3nc(Nc4ccc(F)cc4)nc(Nc4ccc(F)cc4)n3)cc2)cc(OC)c1OC | > 100 µM | > 100 µM | > 100 µM | > 100 µM | > 100 µM | > 100 µM | > 100 µM | > 100 µM | > 100 µM | > 100 µM | 7.92 µM | 41.2 µM | 80.7 µM | 2.56 µM | 6.73 µM |  |  | > 100 µM | 8.79 µM | 5.26 µM |
| CN(C)/[N+]([O-])=N/Oc1cc(Nc2ccc(C(=O)O)cc2)c([N+](=O)[O-])cc1[N+](=O)[O-] |  | > 100 µM | 40.1 µM |  | 41.6 µM | 33.6 µM |  | 30.8 µM | 35 µM |  | 32.2 µM | 20.4 µM |  | 20.9 µM | 19 µM | 18.5 µM | 34.6 µM |  | 14.6 µM | 18 µM |

From PubChem BioAssay (NCI)
